# PubChem BioAssay (NCI)
#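 Interpolation was linear, between the two tested concentrations surrounding the appropriate level; five concentrations were tested over 48 hours in 96-well plates. The concentration for 50% growth inhibition is given as GI50. TGI marks complete inhibition of growth.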
# How the values were obtained:
# Test in all cases: DTP human tumour cell line panel, 48 h
# KM12 colon = test system: KM12 colon
# UACC-257 melanoma = test system: UACC-257 melanoma
# MALME-3M melanoma = test system: MALME-3M melanoma
# HOP-62 NSCLC = test system: HOP-62 NSCLC
# RPMI-8226 leukemia = test system: RPMI-8226 leukemia
# SF-295 CNS = test system: SF-295 CNS
# DU-145 prostate = test system: DU-145 prostate
# HS 578T breast = test system: HS 578T breast
# MCF7 breast = test system: MCF7 breast
# PC-3 prostate = test system: PC-3 prostate
# OVCAR-5 ovarian = test system: OVCAR-5 ovarian
# 786-0 renal = test system: 786-0 renal
# LOX IMVI melanoma = test system: LOX IMVI melanoma
# NCI-H460 lung = test system: NCI-H460 lung
# SF-268 CNS = test system: SF-268 CNS
# K-562 leukemia = test system: K-562 leukemia
# ACHN renal = test system: ACHN renal
# SF-539 CNS = test system: SF-539 CNS
# MDA-MB-231 breast = test system: MDA-MB-231 breast
# EKVX NSCLC = test system: EKVX NSCLC
# OVCAR-8 ovarian = test system: OVCAR-8 ovarian
# SR leukemia = test system: SR leukemia
# SK-MEL-2 melanoma = test system: SK-MEL-2 melanoma
# OVCAR-3 ovarian = test system: OVCAR-3 ovarian
# UO-31 renal = test system: UO-31 renal
# RXF 393 renal = test system: RXF 393 renal
# UACC-62 melanoma = test system: UACC-62 melanoma
# HT29 colon = test system: HT29 colon
# SK-MEL-5 melanoma = test system: SK-MEL-5 melanoma
# CAKI-1 renal = test system: CAKI-1 renal
# OVCAR-4 ovarian = test system: OVCAR-4 ovarian
# MDA-MB-435 = test system: MDA-MB-435
# NCI-H23 lung = test system: NCI-H23 lung
# BT-549 breast = test system: BT-549 breast
# TK-10 renal = test system: TK-10 renal
# A498 renal = test system: A498 renal
# COLO 205 colon = test system: COLO 205 colon
# NCI/ADR-RES ovarian = test system: NCI/ADR-RES ovarian
# HCT-116 colon = test system: HCT-116 colon
# SK-MEL-28 melanoma = test system: SK-MEL-28 melanoma
# SNB-19 CNS = test system: SNB-19 CNS
# U251 CNS = test system: U251 CNS
# SN12C renal = test system: SN12C renal
# CCRF-CEM leukemia = test system: CCRF-CEM leukemia
# MOLT-4 leukemia = test system: MOLT-4 leukemia
# SK-OV-3 ovarian = test system: SK-OV-3 ovarian
# SW-620 colon = test system: SW-620 colon
# HOP-92 NSCLC = test system: HOP-92 NSCLC
# NCI-H522 lung = test system: NCI-H522 lung
# M14 melanoma = test system: M14 melanoma
# A549 NSCLC = test system: A549 NSCLC
# HCT-15 colon = test system: HCT-15 colon
# T-47D breast = test system: T-47D breast
# SNB-75 CNS = test system: SNB-75 CNS
# HL-60(TB) leukemia = test system: HL-60(TB) leukemia
# HCC-2998 colon = test system: HCC-2998 colon
smiles,measurement,setting,value
Cc1ccc(N=C/C=C(\Nc2ccc(C)cc2)c2ccc(Cl)cc2)cc1,GI50,KM12 colon,5.36 µM
same,TGI,KM12 colon,46.7 µM
same,GI50,UACC-257 melanoma,15.8 µM
same,TGI,UACC-257 melanoma,38.8 µM
same,GI50,MALME-3M melanoma,9.27 µM
same,TGI,MALME-3M melanoma,48.4 µM
same,GI50,HOP-62 NSCLC,14.9 µM
same,TGI,HOP-62 NSCLC,35.9 µM
same,GI50,RPMI-8226 leukemia,3.53 µM
same,TGI,RPMI-8226 leukemia,> 100 µM
same,GI50,SF-295 CNS,5.55 µM
same,TGI,SF-295 CNS,21.9 µM
same,GI50,DU-145 prostate,15.6 µM
same,TGI,DU-145 prostate,38.4 µM
same,GI50,HS 578T breast,15.3 µM
same,TGI,HS 578T breast,41.7 µM
same,GI50,MCF7 breast,5.77 µM
same,TGI,MCF7 breast,69.6 µM
same,GI50,PC-3 prostate,26.8 µM
same,TGI,PC-3 prostate,> 100 µM
same,GI50,OVCAR-5 ovarian,24.4 µM
same,TGI,OVCAR-5 ovarian,94.9 µM
same,GI50,786-0 renal,11.1 µM
same,TGI,786-0 renal,28.7 µM
same,GI50,LOX IMVI melanoma,5.58 µM
same,TGI,LOX IMVI melanoma,> 100 µM
same,GI50,NCI-H460 lung,6.38 µM
same,TGI,NCI-H460 lung,60.6 µM
same,GI50,SF-268 CNS,13.4 µM
same,TGI,SF-268 CNS,40.2 µM
same,GI50,K-562 leukemia,4.75 µM
same,TGI,K-562 leukemia,> 100 µM
same,GI50,ACHN renal,14.5 µM
same,TGI,ACHN renal,> 100 µM
same,GI50,SF-539 CNS,6.1 µM
same,TGI,SF-539 CNS,26.6 µM
same,GI50,MDA-MB-231 breast,11.2 µM
same,TGI,MDA-MB-231 breast,46.6 µM
same,GI50,EKVX NSCLC,14 µM
same,TGI,EKVX NSCLC,36.2 µM
same,GI50,OVCAR-8 ovarian,14.6 µM
same,TGI,OVCAR-8 ovarian,53.6 µM
same,GI50,SR leukemia,2.32 µM
same,TGI,SR leukemia,> 100 µM
same,GI50,SK-MEL-2 melanoma,29.9 µM
same,TGI,SK-MEL-2 melanoma,> 100 µM
same,GI50,OVCAR-3 ovarian,8.06 µM
same,TGI,OVCAR-3 ovarian,77.9 µM
same,GI50,UO-31 renal,21.4 µM
same,TGI,UO-31 renal,85.8 µM
same,GI50,RXF 393 renal,17.6 µM
same,TGI,RXF 393 renal,59.2 µM
same,GI50,UACC-62 melanoma,7.31 µM
same,TGI,UACC-62 melanoma,39.8 µM
same,GI50,HT29 colon,4 µM
same,TGI,HT29 colon,> 100 µM
same,GI50,SK-MEL-5 melanoma,6 µM
same,TGI,SK-MEL-5 melanoma,20.7 µM
same,GI50,CAKI-1 renal,8.52 µM
same,TGI,CAKI-1 renal,40.4 µM
same,GI50,OVCAR-4 ovarian,47.4 µM
same,TGI,OVCAR-4 ovarian,> 100 µM
same,GI50,MDA-MB-435,2.82 µM
same,TGI,MDA-MB-435,12 µM
same,GI50,NCI-H23 lung,11 µM
same,TGI,NCI-H23 lung,32.3 µM
same,GI50,BT-549 breast,11.2 µM
same,TGI,BT-549 breast,29.2 µM
same,GI50,TK-10 renal,12.3 µM
same,TGI,TK-10 renal,42.2 µM
same,GI50,A498 renal,16.8 µM
same,TGI,A498 renal,34.1 µM
same,GI50,COLO 205 colon,7.11 µM
same,TGI,COLO 205 colon,> 100 µM
same,GI50,NCI/ADR-RES ovarian,5.1 µM
same,TGI,NCI/ADR-RES ovarian,22.1 µM
same,GI50,HCT-116 colon,5.54 µM
same,TGI,HCT-116 colon,46.8 µM
same,GI50,SK-MEL-28 melanoma,4.99 µM
same,TGI,SK-MEL-28 melanoma,27.1 µM
same,GI50,SNB-19 CNS,17.3 µM
same,TGI,SNB-19 CNS,70.6 µM
same,GI50,U251 CNS,7.39 µM
same,TGI,U251 CNS,50.1 µM
same,GI50,SN12C renal,11.7 µM
same,TGI,SN12C renal,33.3 µM
same,GI50,CCRF-CEM leukemia,1.95 µM
same,TGI,CCRF-CEM leukemia,33.5 µM
same,GI50,MOLT-4 leukemia,4.25 µM
same,TGI,MOLT-4 leukemia,> 100 µM
same,GI50,SK-OV-3 ovarian,21 µM
same,TGI,SK-OV-3 ovarian,> 100 µM
same,GI50,SW-620 colon,6.44 µM
same,TGI,SW-620 colon,52 µM
same,GI50,HOP-92 NSCLC,14 µM
same,TGI,HOP-92 NSCLC,33.1 µM
same,GI50,NCI-H522 lung,21.9 µM
same,TGI,NCI-H522 lung,70 µM
same,GI50,M14 melanoma,4.96 µM
same,TGI,M14 melanoma,22.5 µM
same,GI50,A549 NSCLC,10.5 µM
same,TGI,A549 NSCLC,61.1 µM
same,GI50,HCT-15 colon,5.77 µM
same,TGI,HCT-15 colon,> 100 µM
same,GI50,T-47D breast,> 100 µM
same,TGI,T-47D breast,> 100 µM
CC1(C)C(=O)/C(=C\c2cccnc2)C[C@]2(C)[C@H]3CC[C@@H]4[C@H]5[C@H](C(=O)/C=C/c6cccnc6)CC[C@]5(C(=O)O)CC[C@@]4(C)[C@]3(C)CC[C@@H]12,GI50,KM12 colon,1.73 µM
same,TGI,KM12 colon,3.64 µM
same,GI50,UACC-257 melanoma,1.88 µM
same,TGI,UACC-257 melanoma,4.25 µM
same,GI50,MALME-3M melanoma,2 µM
same,TGI,MALME-3M melanoma,4.46 µM
same,GI50,HOP-62 NSCLC,1.89 µM
same,TGI,HOP-62 NSCLC,4.5 µM
same,GI50,RPMI-8226 leukemia,1.88 µM
same,TGI,RPMI-8226 leukemia,7.28 µM
same,GI50,SF-295 CNS,2.22 µM
same,TGI,SF-295 CNS,5.59 µM
same,GI50,DU-145 prostate,2.1 µM
same,TGI,DU-145 prostate,5 µM
same,GI50,HS 578T breast,7.61 µM
same,TGI,HS 578T breast,> 100 µM
same,GI50,MCF7 breast,2.56 µM
same,TGI,MCF7 breast,10.7 µM
same,GI50,PC-3 prostate,2.41 µM
same,TGI,PC-3 prostate,8.58 µM
same,GI50,OVCAR-5 ovarian,2.44 µM
same,TGI,OVCAR-5 ovarian,4.88 µM
same,GI50,786-0 renal,2.36 µM
same,TGI,786-0 renal,5.41 µM
same,GI50,LOX IMVI melanoma,1.74 µM
same,TGI,LOX IMVI melanoma,3.6 µM
same,GI50,NCI-H460 lung,2.12 µM
same,TGI,NCI-H460 lung,6.69 µM
same,GI50,SF-268 CNS,2.15 µM
same,TGI,SF-268 CNS,5.46 µM
same,GI50,K-562 leukemia,2.05 µM
same,TGI,K-562 leukemia,20.5 µM
same,GI50,ACHN renal,1.69 µM
same,TGI,ACHN renal,3.06 µM
same,GI50,SF-539 CNS,1.9 µM
same,TGI,SF-539 CNS,3.92 µM
same,GI50,EKVX NSCLC,2.11 µM
same,TGI,EKVX NSCLC,4.92 µM
same,GI50,OVCAR-8 ovarian,3.5 µM
same,TGI,OVCAR-8 ovarian,> 100 µM
same,GI50,SR leukemia,2.03 µM
same,TGI,SR leukemia,29.7 µM
same,GI50,SK-MEL-2 melanoma,2.54 µM
same,TGI,SK-MEL-2 melanoma,6.66 µM
same,GI50,OVCAR-3 ovarian,1.76 µM
same,TGI,OVCAR-3 ovarian,3.42 µM
same,GI50,RXF 393 renal,1.67 µM
same,TGI,RXF 393 renal,3.1 µM
same,GI50,UACC-62 melanoma,2.03 µM
same,TGI,UACC-62 melanoma,4.02 µM
same,GI50,HT29 colon,3.09 µM
same,TGI,HT29 colon,10.8 µM
same,GI50,SK-MEL-5 melanoma,1.8 µM
same,TGI,SK-MEL-5 melanoma,3.22 µM
same,GI50,CAKI-1 renal,1.66 µM
same,TGI,CAKI-1 renal,3.38 µM
same,GI50,OVCAR-4 ovarian,4.37 µM
same,TGI,OVCAR-4 ovarian,> 100 µM
same,GI50,MDA-MB-435,3.2 µM
same,TGI,MDA-MB-435,12.9 µM
same,GI50,NCI-H23 lung,2.06 µM
same,TGI,NCI-H23 lung,4.87 µM
same,GI50,BT-549 breast,1.95 µM
same,TGI,BT-549 breast,4.41 µM
same,GI50,TK-10 renal,3.57 µM
same,TGI,TK-10 renal,10.9 µM
same,GI50,SNB-75 CNS,4.01 µM
same,TGI,SNB-75 CNS,44.2 µM
same,GI50,A498 renal,1.92 µM
same,TGI,A498 renal,3.44 µM
same,GI50,COLO 205 colon,2.33 µM
same,TGI,COLO 205 colon,5.17 µM
same,GI50,NCI/ADR-RES ovarian,3.08 µM
same,TGI,NCI/ADR-RES ovarian,> 100 µM
same,GI50,HCT-116 colon,1.61 µM
same,TGI,HCT-116 colon,3.56 µM
same,GI50,HL-60(TB) leukemia,1.95 µM
same,TGI,HL-60(TB) leukemia,5.27 µM
same,GI50,SK-MEL-28 melanoma,2.16 µM
same,TGI,SK-MEL-28 melanoma,4.39 µM
same,GI50,SNB-19 CNS,2.34 µM
same,TGI,SNB-19 CNS,5.69 µM
same,GI50,U251 CNS,1.74 µM
same,TGI,U251 CNS,3.26 µM
same,GI50,SN12C renal,2.79 µM
same,TGI,SN12C renal,9.76 µM
same,GI50,CCRF-CEM leukemia,1.44 µM
same,TGI,CCRF-CEM leukemia,8.07 µM
same,GI50,MOLT-4 leukemia,2.22 µM
same,TGI,MOLT-4 leukemia,11.5 µM
same,GI50,SK-OV-3 ovarian,3.82 µM
same,TGI,SK-OV-3 ovarian,14.5 µM
same,GI50,HCC-2998 colon,1.88 µM
same,TGI,HCC-2998 colon,3.55 µM
same,GI50,SW-620 colon,2.79 µM
same,TGI,SW-620 colon,10.3 µM
same,GI50,HOP-92 NSCLC,2.31 µM
same,TGI,HOP-92 NSCLC,7.64 µM
same,GI50,NCI-H522 lung,2.35 µM
same,TGI,NCI-H522 lung,5.99 µM
same,GI50,M14 melanoma,2.64 µM
same,TGI,M14 melanoma,8.97 µM
same,GI50,A549 NSCLC,2.14 µM
same,TGI,A549 NSCLC,5.11 µM
same,GI50,HCT-15 colon,1.76 µM
same,TGI,HCT-15 colon,4.54 µM
same,GI50,T-47D breast,3.75 µM
same,TGI,T-47D breast,24.6 µM
